# According to patent publication US20190100534A1, “Cephem Compounds with Latent Reactive Groups” (Gladius Pharmaceuticals, Inc., priority 2017, published 2019):
# How the values were obtained:
# [1] = test system: CF (Citrobacter freundii); test: MIC determination; assay type: cell-based; conditions: CAMH broth, 20 μM Apo-Transferrin, 37° C., 18 hours; for MIC: Citrobacter freundii, read-out: Minimum Inhibitory Concentrations, CF
# Procedure, shortened: (§1)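 Values come from a visual broth microdilution read: the first transparent well at the lowest drug level defines MIC. Inocula were standardized to 0.5 McFarland units, and the medium was CAMH with 20 μM apo-transferrin. Plates incubated overnight, 18 h, at 37 °C.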
# EC (Escherichia coli) = test: MIC determination; assay type: cell-based; conditions: 20 μM Apo-Transferrin, 37° C., 18 hours
# Procedure, shortened: as §1
# [2] = test system: ENC (Enterobacter cloacae); test: MIC determination; assay type: cell-based; conditions: CAMH broth, 20 μM Apo-Transferrin, 37° C., 18 hours
# Procedure, shortened: as §1
# [3] = test system: KOXY (Klebsiella oxytoca); test: MIC determination; assay type: cell-based; conditions: CAMH broth, 20 μM Apo-Transferrin, 37° C., 18 hours; for MIC: Klebsiella oxytoca, read-out: Minimum Inhibitory Concentrations, KOXY
# Procedure, shortened: as §1
# [4] = test system: KP (Klebsiella pneumoniae); test: MIC determination; assay type: cell-based; conditions: 20 μM Apo-Transferrin, 37° C., 18 hours
# Procedure, shortened: as §1
# PM (Proteus mirabilis) = test: MIC determination; assay type: cell-based; conditions: CAMH broth, 20 μM Apo-Transferrin, 37° C., 18 hours; for MIC: Proteus mirabilis, read-out: Minimum Inhibitory Concentrations, PM
# Procedure, shortened: as §1
# SM (Serratia marcescens) = test: MIC determination; assay type: cell-based; conditions: CAMH broth, 20 μM Apo-Transferrin, 37° C., 18 hours; for MIC: Serratia marcescens, read-out: Minimum Inhibitory Concentrations, SM
# Procedure, shortened: as §1
# EC (RR -1) = test: MIC determination; assay type: cell-based, Escherichia coli; conditions: CAMH broth, 20 μM Apo-Transferrin, 37° C., 18 hours
# Procedure, shortened: as §1
# EC (RR -2) = test: MIC determination; assay type: cell-based, Escherichia coli; conditions: CAMH broth, 20 μM Apo-Transferrin, 37° C., 18 hours
# Procedure, shortened: as §1
# EC (URMC-1) = test: MIC determination; assay type: cell-based, Escherichia coli; conditions: CAMH broth, 20 μM Apo-Transferrin, 37° C., 18 hours; for MIC: Escherichia coli, read-out: Minimum Inhibitory Concentrations, EC (URMC-1)
# Procedure, shortened: as §1
# EC (URMC-2) = test: MIC determination; assay type: cell-based, Escherichia coli; conditions: CAMH broth, 20 μM Apo-Transferrin, 37° C., 18 hours; for MIC: Escherichia coli, read-out: Minimum Inhibitory Concentrations, EC (URMC-2)
# Procedure, shortened: as §1
# EC (URMC-3) = test: MIC determination; assay type: cell-based, Escherichia coli; conditions: CAMH broth, 20 μM Apo-Transferrin, 37° C., 18 hours; for MIC: Escherichia coli, read-out: Minimum Inhibitory Concentrations, EC (URMC-3)
# Procedure, shortened: as §1
# EC(ATCC NDM-1) = test: MIC determination; assay type: cell-based, Escherichia coli; conditions: CAMH broth, 20 μM Apo-Transferrin, 37° C., 18 hours; for MIC: Escherichia coli, read-out: Minimum Inhibitory Concentrations, EC(ATCC NDM-1)
# Procedure, shortened: as §1
# EC(KB1 CTX-M-14) = test: MIC determination; assay type: cell-based, Escherichia coli; conditions: for MIC: Escherichia coli, 18 h, read-out: Minimum Inhibitory Concentrations, EC(KB1 CTX-M-14)
# Procedure, shortened: as §1
# EC(KB1 CTX-M-15) = test: MIC determination; assay type: cell-based, Escherichia coli; conditions: CAMH broth, 20 μM Apo-Transferrin, 37° C., 18 hours; for MIC: Escherichia coli, read-out: Minimum Inhibitory Concentrations, EC(KB1 CTX-M-15)
# Procedure, shortened: as §1
# EC(KB2 CTX-M-14) = test: MIC determination; assay type: cell-based, Escherichia coli; conditions: for MIC: Escherichia coli, 18 h, read-out: Minimum Inhibitory Concentrations, EC(KB2 CTX-M-14)
# Procedure, shortened: as §1
# EC(KB2 CTX-M-15) = test: MIC determination; assay type: cell-based, Escherichia coli; conditions: CAMH broth, 20 μM Apo-Transferrin, 37° C., 18 hours; for MIC: Escherichia coli, read-out: Minimum Inhibitory Concentrations, EC(KB2 CTX-M-15)
# Procedure, shortened: as §1
# KP(ATCC SHV-18) = test: MIC determination; assay type: cell-based, Klebsiella pneumoniae; conditions: CAMH broth, 20 μM Apo-Transferrin, 37° C., 18 hours
# Procedure, shortened: as §1
# [5] = test system: various Pseudomonas strains; test: MIC determination, summary in text; assay type: cell-based, Pseudomonas aeruginosa; conditions: review of Tables 1-1 and 1-2
# Description: (§2) Sterile technique was used throughout these experiments. Suspensions of organisms were removed from storage (−80° C.) and partially thawed. Partially thawed organisms (1 μL) were inoculated into 3 mL sterile LB Broth in a sterile culture tube and capped, then cultured at 37° C. with shaking for 4-5 hours until the optical density at 600 nm (OD600) was greater than 0.1 on a single beam spectrophotometer.
# (§3) The concentration of organisms was adjusted to 0.08-0.1 OD600 (0.5 McFarland units) by dilution with sterile cation-adjusted Meuller-Hinton (CAMH) broth. The suspensions were used within 30 minutes of preparation.
# (§4) A stock solution was made of each test compound by measuring 6.4 mg of the compound on an analytical balance and dissolving it in DMSO (1 mL) to get a transparent solution. The solutions were stored at −20° C. and thawed prior to use.
# (§5) Sterile CAMH broth (200 μL) containing 20 μM Apo-Transferrin was pipetted into the first row of 8 columns of a sterile, round-bottomed, transparent, 96-well microplate using an 8-channel pipette equipped with sterile tips. One hundred μL was pipetted into the wells of the remaining 11 rows.
# (§6) With an 8-channel pipette equipped with sterile tips, 100 μL of the first row solution was transferred to the second row and mixed. The process was repeated for the second to third rows and continued through row 11. One hundred μL from row 11 was removed and discarded so that all 12 rows contained 100 μL. Row 12 contained no compound and rows 1-11 contained 64, 32, 16, 8, 4, 2, 1, 0.5, 0.25, 0.125, […] of a given compound.
# (§7) Inoculant suspensions (0.5 μL) were added to the 12 wells of each column. The plates were then covered and incubated at 37° C. overnight for 18 hours.
# (§8) For each organism the MIC was determined by identifying the transparent well with the lowest test compound concentration.
# various enteric bacteria = test: MIC determination, summary in text; assay type: cell-based; conditions: review of Tables 3-1 to 3-6
# Description: as §2, §3, §4, §5
# To each well of the first row was pipetted 2.0 μL of the 6.4 mg/mL stock test compound stock solution to give 1:100 dilutions and a final concentration of 64 μg/mL and mixed.
# as §6, §7, §8
# [6] = test system: both Acinetobacter baumannii strains tested; test: MIC determination, summary in text; assay type: cell-based; conditions: review of Table 2
# Description: as §2, §3, §4, §5
# With an 8-channel pipette equipped with sterile tips, 100 μL of the first row solution was transferred to the second row and mixed. […]
# as §8
# [7] = first KP column of Table 3-1, CAMH broth
# [8] = second KP column of Table 3-1, CAMH broth
structure (smiles),measurement,setting,value
"CC(C)(O/N=C(\C(=O)N[C@@H]1C(=O)N2C(C(=O)O)=C(C=Cc3ccc(C[n+]4ccc5cc(O)c(O)cc5c4)cc3)CS[C@H]12)c1csc(N)n1)C(=O)O (mixture of isomers) [Compound 435, 2-(4-((E/Z)-2-((6R,7R)-7-((Z)-2-(2-aminothiazol-4-yl)-2-(((2-carboxypropan-2-yl)oxy)imino)acetamido)-2-carboxy-8-oxo-5-thia-1-azabicyclo[4.2.0]oct-2-en-3-yl)vinyl)benzyl)-6,7-dihydroxyisoquinolin-2-ium]","Minimum Inhibitory Concentrations, CF",[1],≤0.06 microgram/mL
same,"Minimum Inhibitory Concentrations, EC","EC (Escherichia coli); Table 3-1, CAMH broth",≤0.06 microgram/mL
same,"Minimum Inhibitory Concentrations, EC","EC (Escherichia coli); first EC column of Table 3-1, CAMH broth",≤0.06 microgram/mL
same,"Mimimum Inhibitory Concentrations, ENC",[2],16 microgram/mL
same,"Minimum Inhibitory Concentrations, KOXY",[3],≤0.06 microgram/mL
same,"Minimum Inhibitory Concentrations, KP",[4]; [7],≤0.06 microgram/mL
same,"Minimum Inhibitory Concentrations, KP",[4]; [8],≤0.06 microgram/mL
same,"Minimum Inhibitory Concentrations, PM",PM (Proteus mirabilis),≤0.06 microgram/mL
same,"Minimum Inhibitory Concentrations, SM",SM (Serratia marcescens),0.25 microgram/mL
same,"Mimimum Inhibitory Concentrations, EC (RR -1)",EC (RR -1),≤0.06 microgram/mL
same,"Mimimum Inhibitory Concentrations, EC (RR -2)",EC (RR -2),≤0.06 microgram/mL
same,"Minimum Inhibitory Concentrations, EC (URMC-1)",EC (URMC-1),≤0.06 microgram/mL
same,"Minimum Inhibitory Concentrations, EC (URMC-2)",EC (URMC-2),≤0.06 microgram/mL
same,"Minimum Inhibitory Concentrations, EC (URMC-3)",EC (URMC-3),0.5 microgram/mL
same,"Minimum Inhibitory Concentrations, EC(ATCC NDM-1)",EC(ATCC NDM-1),>64 microgram/mL
same,"Minimum Inhibitory Concentrations, EC(KB1 CTX-M-14)","EC(KB1 CTX-M-14); EC(KB1 CTX-M-14), CAMH broth, 20 μM Apo-Transferrin, 37° C., 18 hours",≤0.06 microgram/mL
same,"Minimum Inhibitory Concentrations, EC(KB1 CTX-M-15)",EC(KB1 CTX-M-15),0.13 microgram/mL
same,"Minimum Inhibitory Concentrations, EC(KB2 CTX-M-14)","EC(KB2 CTX-M-14); EC(KB2 CTX-M-14), CAMH broth, 20 μM Apo-Transferrin, 37° C., 18 hours",≤0.06 microgram/mL
same,"Minimum Inhibitory Concentrations, EC(KB2 CTX-M-15)",EC(KB2 CTX-M-15),0.5 microgram/mL
same,"Minimum Inhibitory Concentrations, KP(ATCC SHV-18)",KP(ATCC SHV-18),0.25 microgram/mL
same,"MICs for various Pseudomonas strains, in words",[5],low microgram/mL MICs
same,"MICs for various enteric bacteria, in words",various enteric bacteria,low microgram/mL MICs
"CC(C)(O/N=C(\C(=O)N[C@@H]1C(=O)N2C(C(=O)O)=C(C=Cc3ccc(C[n+]4ccc(-c5ccc(O)c(O)c5)cc4)cc3)CS[C@H]12)c1csc(N)n1)C(=O)O (mixture of isomers) [Compound 412, 1-(4-((E/Z)-2-((6R,7R)-7-((Z)-2-(2-aminothiazol-4-yl)-2-(((2-carboxypropan-2-yl)oxy)imino)acetamido)-2-carboxy-8-oxo-5-thia-1-azabicyclo[4.2.0]oct-2-en-3-yl)vinyl)benzyl)-4-(3,4-dihydroxyphenyl)pyridin-1-ium]",MIC,[1],≤ 0.06 µg/mL
same,"Mimimum Inhibitory Concentrations, ENC",[2],4 microgram/mL
same,MIC,[3],0.5 µg/mL
same,"Minimum Inhibitory Concentrations, KP",[4]; [7],2 microgram/mL
same,"Minimum Inhibitory Concentrations, KP",[4]; [8],2 microgram/mL
same,MIC,PM (Proteus mirabilis),≤ 0.06 µg/mL
same,MIC,SM (Serratia marcescens),0.5 µg/mL
same,"Mimimum Inhibitory Concentrations, EC (RR -1)",EC (RR -1),0.25 microgram/mL
same,"Mimimum Inhibitory Concentrations, EC (RR -2)",EC (RR -2),≤0.06 microgram/mL
same,MIC,EC (URMC-1),0.25 µg/mL
same,MIC,EC (URMC-2),4 µg/mL
same,MIC,EC (URMC-3),≤ 0.06 µg/mL
same,MIC,EC(ATCC NDM-1),> 64 µg/mL
same,MIC,EC(KB1 CTX-M-14),0.5 µg/mL
same,MIC,EC(KB1 CTX-M-15),16 µg/mL
same,MIC,EC(KB2 CTX-M-14),1 µg/mL
same,MIC,EC(KB2 CTX-M-15),32 µg/mL
same,"Minimum Inhibitory Concentrations, KP(ATCC SHV-18)",KP(ATCC SHV-18),1 microgram/mL
"CC(C)(O/N=C(\C(=O)N[C@@H]1C(=O)N2C(C(=O)O)=C(C=Cc3ccc(C[N+]4(C)CCc5cc(O)c(O)cc5C4)cc3)CS[C@H]12)c1csc(N)n1)C(=O)O (mixture of isomers) [Compound 407, 2-(4-((E/Z)-2-((6R,7R)-7-((Z)-2-(2-aminothiazol-4-yl)-2-(((2-carboxypropan-2-yl)oxy)imino)acetamido)-2-carboxy-8-oxo-5-thia-1-azabicyclo[4.2.0]oct-2-en-3 yl)vinyl)benzyl)-6,7-dihydroxy-2-methyl-1,2,3,4-tetrahydroisoquinolin-2-ium]",MIC,[1],≤ 0.06 µg/mL
same,MIC,"EC (Escherichia coli); Escherichia coli, first EC column of Table 3-1, CAMH broth, read-out: Minimum Inhibitory Concentrations, EC",0.25 µg/mL
same,"Minimum Inhibitory Concentrations, EC","EC (Escherichia coli); Table 3-1, CAMH broth",0.25 microgram/mL
same,"Mimimum Inhibitory Concentrations, ENC",[2],4 microgram/mL
same,MIC,[3],1 µg/mL
same,"Minimum Inhibitory Concentrations, KP",[4]; [7],0.25 microgram/mL
same,"Minimum Inhibitory Concentrations, KP",[4]; [8],0.25 microgram/mL
same,MIC,PM (Proteus mirabilis),≤ 0.06 µg/mL
same,MIC,SM (Serratia marcescens),0.25 µg/mL
same,"Mimimum Inhibitory Concentrations, EC (RR -1)",EC (RR -1),0.13 microgram/mL
same,"Mimimum Inhibitory Concentrations, EC (RR -2)",EC (RR -2),0.13 microgram/mL
same,MIC,EC (URMC-1),0.25 µg/mL
same,MIC,EC (URMC-2),0.25 µg/mL
same,MIC,EC (URMC-3),≤ 0.06 µg/mL
same,MIC,EC(ATCC NDM-1),> 64 µg/mL
same,MIC,EC(KB1 CTX-M-14),2 µg/mL
same,MIC,EC(KB1 CTX-M-15),> 64 µg/mL
same,MIC,EC(KB2 CTX-M-14),64 µg/mL
same,MIC,EC(KB2 CTX-M-15),> 64 µg/mL
same,"Minimum Inhibitory Concentrations, KP(ATCC SHV-18)",KP(ATCC SHV-18),2 microgram/mL
same,"MICs for various Pseudomonas strains, in words",[5],low microgram/mL MICs
same,"MICs for both Acinetobacter baumannii strains tested, in words",[6],lower microgram/mL MICs
